Assay results published in PMC8743659, “C1632 suppresses the migration and proliferation of non‐small‐cell lung cancer cells involving LIN28 and FGFR1 pathway” (Journal of Cellular and Molecular Medicine, 2021).

What was measured:
[1] = tested on: FGFR1; assay: Western blot of FGFR1 signalling in NSCLC cells; format: cell-based, human; settings: Ponatinib, A549 and A549R cell lines
Procedure: The total cell protein was extracted and denaturized at 95°C for 10 min. Samples were separated in SDS‐PAGE gel, then transferred to a PVDF membrane. […] Blots were probed with relevant primary antibodies against FGFR1 (CST), p‐FGFR1 (CST), MAPK (CST), p‐MAPK (CST), FAK (CST), p‐FAK (CST), MMP‐9 (CST), LIN28B (CST), GAPDH (CST), and β‐actin (proteintech) overnight at 4°C, respectively. Then the lanes were detected with HRP‐conjugated secondary antibodies and visualized using WESTAR SUPERNOVA kit ([…]).

[2] = tested on: LIN28B; assay: Western blot of LIN28B after FGFR1 inhibition; format: cell-based, human; settings: Ponatinib, A549 and A549R cell lines
Procedure: The total cell protein was extracted and denaturized at 95°C for 10 min. Samples were separated in SDS‐PAGE gel, then transferred to a PVDF membrane. Then this membrane was blocked with 5% non‐fat milk (solved in TBST) for 2.5 h at room temperature. Blots were probed with relevant primary antibodies against FGFR1 (CST), p‐FGFR1 (CST), MAPK (CST), p‐MAPK (CST), FAK (CST), p‐FAK (CST), MMP‐9 (CST), LIN28B (CST), GAPDH (CST), and β‐actin (proteintech) overnight at 4°C, respectively. Then the lanes were detected with HRP‐conjugated secondary antibodies and visualized using WESTAR SUPERNOVA kit (CYANAGEN).

Cc1ccc(C(=O)Nc2ccc(CN3CCN(C)CC3)c(C(F)(F)F)c2)cc1C#Cc1cnc2cccnn12 [Ponatinib, reference compound]
effect on FGFR1 [1]: inhibited FGFR1
expression of LIN28B [2]: suppressing the expression of LIN28B
